Reference: patent publication US20260345641A1, “COMPOSITIONS AND USES THEREOF” (Algorae Pharmaceuticals Ltd, priority 2023, published 2026)

Tested on: SH-SY5Y cells
Assay: Gene expression analysis by RNA sequencing in the presence of Aβ
Format: cell-based, human
Conditions: 5 μM, with Aβ
From the text: The SH-S5Y5 neuroblastoma cell line was used for pre-clinical analysis. The SH-S5Y5 cell line is commonly used as a model for neurodegenerative disorders as the cells can be converted to various types of functional neurons by the addition of specific compounds (see, e.g., Xicoy et al., 2017, Molecular Neurodegeneration, 12: 10). In addition, the SH-S5Y5 cell line has been used widely in experimental neurological studies, including analysis of neuronal differentiation, metabolism, and function related to neurodegenerative processes, neurotoxicity and neuroprotection (see, e.g., Datki et al., 2003, Brain Research Bulletin, 62(3): 22-229; and Xie et al., 2010, Chinese Medical Journal, 123(8): 1086-1092).
Total RNA was isolated from cells using TRIzol in accordance with the manufacturer's instructions (Invitrogen, Carlsbad, CA, USA). RNA concentration and quality was assessed using a NanoDrop spectrophotometer. Only samples with a 260/280 ratio of ≥1.8 were used for further analysis.
Messenger RNA (mRNA) was purified from total RNA using poly-T oligo attached magnetic beads. After fragmentation, cDNA synthesis was performed in accordance with the manufacturer's instructions (Illumina, San Diego, CA, USA) to generate a directional and non-directional library. Libraries were checked with Qubit, real-time PCR was performed for quantification, and size distribution detection was performed using the Bioanalyzer. Quantified libraries were pooled and sequenced on an Illumina platform, according to the manufacturer's instructions.
Raw reads were filtered and mapped to human reference genome (GRCh38/hg38) using HISAT2. Differential gene expression analysis was performed using R Package DEG seq2. […] Manual annotation of genes previously associated with specific neurodegenerative disorders and dementias was performed following a text mining analysis.

COc1cc2c(cc1OC)C(=O)C(CC1CCN(Cc3ccccc3)CC1)C2 (stereo not shown) [Donepezil]
MEG3 gene expression (control 0.007, P 0.038): 0.008
SAMD12 gene expression (control 0.011, P 0.052): 0.002
TNF gene expression (control 0.032, P 0.046): 0.026
ATXN7 gene expression (control 0.042, P 0.014): 0.150
PRICKLE2 gene expression (control 0.060, P 0.007): 0.085
IRF4 gene expression (control 0.076, P 0.050): 0.010
NRXN1 gene expression (control 0.085, P 0.007): 0.125
DNAH8 gene expression (control 0.090, P 0.017): 0.009
MME gene expression (control 0.091, P 0.004): 0.240
CLN3 gene expression (control 0.092, P 0.051): 0.093
DMD gene expression (control 0.166, P 0.017): 0.352
PPP2R2B gene expression (control 0.179, P 0.056): 0.146
PRSS23 gene expression (control 0.196, P 0.022): 0.193
ACE gene expression (control 0.209, P 0.004): 0.644
A2M gene expression (control 0.242, P 0.006): 0.122
TCIRG1 gene expression (control 0.302, P 0.023): 0.340
SLC1A1 gene expression (control 0.314, P 0.003): 0.482
NTNG1 gene expression (control 0.327, P 0.009): 0.249
NTRK2 gene expression (control 0.329, P 0.015): 0.700
PIH1D2 gene expression (control 0.334, P 0.023): 0.137
TUBA4A gene expression (control 0.334, P 0.053): 0.432
FGFR2 gene expression (control 0.353, P 0.053): 0.228
PDE11A gene expression (control 0.366, P 0.020): 0.416
TUNAR gene expression (control 0.382, P 0.009): 0.441
RETREG1 gene expression (control 0.386, P 0.001): 0.774
SORL1 gene expression (control 0.455, P 0.009): 0.683
DPY19L2P2 gene expression (control 0.469, P 0.040): 0.560
TRIM9 gene expression (control 0.529, P 0.008): 1.021
MATR3 gene expression (control 0.559, P 0.001): 0.511
SYCE2 gene expression (control 0.567, P 0.049): 0.604
PLA2G6 gene expression (control 0.634, P 0.016): 0.830
DEPDC5 gene expression (control 0.656, P 0.020): 0.683
CLN5 gene expression (control 0.695, P 0.004): 0.652
SLC9B1 gene expression (control 0.735, P 0.053): 0.713
PLAU gene expression (control 0.799, P 0.005): 1.790
ATXN1 gene expression (control 0.851, P 0.002): 1.152
IRAK1BP1 gene expression (control 0.866, P 0.030): 0.848
PRPH gene expression (control 0.870, P 0.011): 1.132
FHIT gene expression (control 0.882, P 0.033): 1.086
CFAP43 gene expression (control 0.931, P 0.049): 0.636
TMEM63A gene expression (control 0.954, P 0.055): 1.141
LRRC56 gene expression (control 0.982, P 0.002): 1.129
PARD3B gene expression (control 0.986, P 0.002): 1.168
ADCY5 gene expression (control 1.228, P 0.036): 1.662
DISC1 gene expression (control 1.302, P 0.033): 1.242
KCNT1 gene expression (control 1.355, P 0.002): 1.707
GAN gene expression (control 1.529, P 0.018): 1.495
DPP10 gene expression (control 1.590, P 0.009): 1.562
CHRNB4 gene expression (control 1.624, P 0.018): 2.920
MEF2C gene expression (control 1.668, P 0.044): 1.624
PACRG gene expression (control 1.720, P 0.027): 1.797
CDKL5 gene expression (control 1.735, P 0.001): 2.077
SIL1 gene expression (control 1.736, P 0.021): 1.886
PDLIM3 gene expression (control 1.777, P 0.026): 3.231
MT-TH gene expression (control 1.782, P 0.047): 0.388
MT-TD gene expression (control 1.849, P 0.032): 2.334
MMACHC gene expression (control 1.874, P 0.018): 1.731
ZFYVE26 gene expression (control 1.909, P 0.032): 1.930
TMLHE gene expression (control 1.915, P 0.004): 2.188
MAPT gene expression (control 1.915, P 0.007): 2.615
MSRA gene expression (control 1.969, P 0.027): 1.709
COQ2 gene expression (control 1.970, P 0.055): 1.406
PINK1-AS gene expression (control 1.974, P 0.029): 1.689
DLG2 gene expression (control 1.977, P 0.041): 2.816
FZD3 gene expression (control 1.990, P 0.010): 2.276
KATNAL2 gene expression (control 2.005, P 0.000): 2.056
ALMS1 gene expression (control 2.170, P 0.003): 2.220
HOTAIR gene expression (control 2.219, P 0.008): 1.982
SETD1B gene expression (control 2.501, P 0.005): 3.039
DRD2 gene expression (control 2.532, P 0.031): 4.790
SMARCA2 gene expression (control 2.546, P 0.044): 2.658
MFSD8 gene expression (control 2.553, P 0.038): 2.381
BDNF gene expression (control 2.554, P 0.014): 0.255
ABCA7 gene expression (control 2.607, P 0.032): 2.087
FSD1L gene expression (control 2.639, P 0.002): 2.451
ROGDI gene expression (control 2.747, P 0.055): 3.041
SPG7 gene expression (control 2.790, P 0.011): 2.471
MT-TW gene expression (control 2.846, P 0.019): 2.620
ATP1A3 gene expression (control 2.847, P 0.021): 3.739
ATL1 gene expression (control 2.891, P 0.027): 3.208
GM2A gene expression (control 2.985, P 0.005): 5.621
LYST gene expression (control 3.000, P 0.053): 2.468
APOL2 gene expression (control 3.111, P 0.054): 3.390
DCX gene expression (control 3.114, P 0.003): 3.488
IFT74 gene expression (control 3.453, P 0.032): 4.207
CLN8 gene expression (control 3.580, P 0.014): 2.847
RBM12 gene expression (control 3.638, P 0.000): 3.884
PRICKLE1 gene expression (control 3.757, P 0.002): 3.333
DPH1 gene expression (control 3.762, P 0.040): 3.962
TRAPPC9 gene expression (control 3.776, P 0.021): 4.781
EIF2B3 gene expression (control 3.828, P 0.043): 3.200
PDE10A gene expression (control 3.855, P 0.030): 3.147
TRAPPC2 gene expression (control 3.872, P 0.053): 4.012
C9orf72 gene expression (control 3.921, P 0.001): 8.663
TFEB gene expression (control 4.181, P 0.001): 2.618
PODXL gene expression (control 4.194, P 0.011): 4.847
ATP6V0A2 gene expression (control 4.281, P 0.017): 4.607
TTC21B gene expression (control 4.351, P 0.026): 4.248
VPS13D gene expression (control 4.370, P 0.001): 4.565
PIGQ gene expression (control 4.438, P 0.008): 4.983
PTPRM gene expression (control 4.505, P 0.000): 4.710
RHOBTB2 gene expression (control 4.522, P 0.012): 5.349
MRE11 gene expression (control 4.546, P 0.036): 4.436
EHMT1 gene expression (control 4.566, P 0.010): 4.445
CYLD gene expression (control 4.607, P 0.036): 3.887
PRDM8 gene expression (control 4.779, P 0.013): 3.461
RNF213 gene expression (control 4.801, P 0.002): 5.276
USP8 gene expression (control 4.840, P 0.047): 3.827
LIG3 gene expression (control 4.935, P 0.007): 5.232
MIAT gene expression (control 5.041, P 0.014): 6.814
JAM2 gene expression (control 5.256, P 0.040): 4.131
PSEN2 gene expression (control 5.259, P 0.051): 5.579
LMBRD1 gene expression (control 5.367, P 0.022): 5.309
NPC1 gene expression (control 5.515, P 0.001): 6.062
OPA1 gene expression (control 5.517, P 0.001): 9.622
VAPB gene expression (control 5.611, P 0.005): 5.235
ANXA11 gene expression (control 5.661, P 0.025): 6.974
MT-TI gene expression (control 5.685, P 0.038): 4.404
GOSR2 gene expression (control 5.846, P 0.000): 5.640
LDLR gene expression (control 5.953, P 0.003): 7.563
DDHD2 gene expression (control 6.006, P 0.000): 6.144
SREBF1 gene expression (control 6.248, P 0.024): 8.317
SLC25A24 gene expression (control 6.258, P 0.036): 5.685
CREB1 gene expression (control 6.333, P 0.006): 7.340
FIG4 gene expression (control 6.430, P 0.051): 6.116
BLMH gene expression (control 6.516, P 0.013): 6.896
APTX gene expression (control 6.525, P 0.011): 6.767
TPP1 gene expression (control 6.541, P 0.009): 7.171
ADAM10 gene expression (control 6.563, P 0.019): 5.824
MT-TA gene expression (control 6.758, P 0.027): 2.804
RAB33A gene expression (control 6.793, P 0.003): 6.922
MT-TC gene expression (control 6.838, P 0.052): 10.995
MECP2 gene expression (control 6.880, P 0.033): 5.530
SPAST gene expression (control 6.944, P 0.053): 5.978
TMEM106B gene expression (control 7.108, P 0.005): 6.957
CRAT gene expression (control 7.227, P 0.031): 9.692
CSTB gene expression (control 7.261, P 0.008): 9.549
IRF6 gene expression (control 7.365, P 0.000): 5.933
TRPM7 gene expression (control 7.393, P 0.030): 5.958
OTUD6B gene expression (control 7.405, P 0.048): 6.534
MAPK8 gene expression (control 7.482, P 0.022): 9.392
POLR1C gene expression (control 7.525, P 0.034): 6.234
CHCHD10 gene expression (control 7.586, P 0.010): 11.163
ATL3 gene expression (control 7.656, P 0.030): 6.616
WDR37 gene expression (control 7.709, P 0.023): 7.870
